Results from PubChem BioAssay (NCI).
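Following 48 hours of exposure in 96-well plates, responses at five concentrations were used to interpolate endpoints linearly. TGI: total growth inhibition.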

How the values were obtained:
Test in all cases: NCI anticancer screen, dose series, 48 h
CAKI-1 renal = system: CAKI-1 renal
HCC-2998 colon = system: HCC-2998 colon
HL-60(TB) leukemia = system: HL-60(TB) leukemia
HOP-62 NSCLC = system: HOP-62 NSCLC
IGROV1 ovarian = system: IGROV1 ovarian
MALME-3M melanoma = system: MALME-3M melanoma
OVCAR-5 ovarian = system: OVCAR-5 ovarian
OVCAR-8 ovarian = system: OVCAR-8 ovarian
SF-539 CNS = system: SF-539 CNS
SK-MEL-2 melanoma = system: SK-MEL-2 melanoma
SK-OV-3 ovarian = system: SK-OV-3 ovarian
SN12C renal = system: SN12C renal
SW-620 colon = system: SW-620 colon
TK-10 renal = system: TK-10 renal

SMILES	TGI (CAKI-1 renal) [µM]	TGI (HCC-2998 colon) [µM]	TGI (HL-60(TB) leukemia) [µM]	TGI (HOP-62 NSCLC) [µM]	TGI (IGROV1 ovarian) [µM]	TGI (MALME-3M melanoma) [µM]	TGI (OVCAR-5 ovarian) [µM]	TGI (OVCAR-8 ovarian) [µM]	TGI (SF-539 CNS) [µM]	TGI (SK-MEL-2 melanoma) [µM]	TGI (SK-OV-3 ovarian) [µM]	TGI (SN12C renal) [µM]	TGI (SW-620 colon) [µM]	TGI (TK-10 renal) [µM]
COc1ccc(Cn2c3c(cc(OC(C)=O)c2=O)Cc2ccccc2-3)cc1	35.7	9.96	20.6	> 50	20.3	32.2	> 50	20.3	28.4	23.9	> 50	20.8	22.4	34
Cc1ccc2c(ccc(/C=C/c3ccc(O)c4ncccc34)[n+]2C)c1	33.3	20.7	> 100	32.9	45.6	31.4	53.3	24	23.1	36.3	34.3	35.6	28.4	38.9
CCOC1C(Br)Cn2c(=O)c3cc4ccccc4cc3c(=O)n2C1C (stereo not given)	> 100	> 100	> 100	> 100	> 100	> 100	> 100	> 100	> 100	> 100	> 100	> 100	> 100	> 100
CC1(C)N/C(=C\[N+](=O)[O-])C(C)(C)N1O	> 10	> 10	> 10	> 10	> 10	> 10	> 10	> 10	> 10	> 10	> 10	> 10	> 10	> 10
COC(=O)C1Cc2cc3c(cc2C1=O)CCC3 (stereo not given)	> 100	> 100	> 100	> 100	> 100	> 100	> 100	> 100	> 100	> 100	> 100	> 100	> 100	> 100
OC(CNc1ccccn1)c1ccccc1 (stereo not given)	> 100	> 100	> 100	> 100	> 100	> 100	> 100	> 100	> 100	> 100	> 100	> 100	> 100	> 100
COC(=O)c1csc([C@@H](OC(=O)[C@H](C)[C@H](CCCC(C)(Cl)Cl)OC(=O)c2csc([C@H](O)CO)n2)C(C)C)n1	32.7	22.2	35.1	33.6	24.1	34.3	29	22.4	8.62	28.9	29.7	4.41	32.6	24.9
NC(N)=NS(=O)(=O)c1ccc(NNc2c3ccccc3nc3ccccc23)cc1	55.1	27.3	43.9	40.1	81.7	32.8	48.2	31.1	36.7	37.1	40.3	35.6	33.7	42.7
O=C1OC(CCCN2CCCCC2)(c2ccccc2)CC12CCCC2 (stereo not given)	> 100	> 100	> 100	> 100	> 100	55.7	> 100	> 100	> 92.1	> 100	> 100	> 100	> 100	> 100
CN(C)CCOc1ccc([N+](=O)[O-])c2cccnc12	> 100	> 100	> 100	> 100	> 100	> 100	> 100	> 100	> 100	> 100	> 100	> 100	> 100	> 100
